Usually EC50 stands for the concentration giving half of the maximal effect. Higher therefore signals lower potency in that assay.

One assay concerns the target human CB2 receptors (Homo sapiens (Human), UniProt P34972). The assay is described as follows: functional cAMP assay, CHO cells expressing human CB2 receptors. In kind it is cell-based. Put shortly: (§1)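 CHO cells expressing human CB1 or CB2 were preincubated 30 min at 30 °C in Krebs Ringer bicarbonate with 1 mM IBMX, then exposed to compound 30 min at 30 °C. cAMP quantified by TR-FRET competition (Alexa700 antibody/ruthenium-cAMP) against a 10 μM–0.13 nM standard curve; EC50 derived.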

A further assay has as its target human CB1 receptors (Homo sapiens (Human), UniProt P21554). The assay is described as follows: functional cAMP assay, CHO cells expressing human CB1 receptors. In kind it is cell-based. Put shortly: as §1
In general terms: Cyclic AMP is a second messenger, typically raised through Gs and lowered through Gi signalling.

Chain of human CB2 receptors (P34972 whole entry): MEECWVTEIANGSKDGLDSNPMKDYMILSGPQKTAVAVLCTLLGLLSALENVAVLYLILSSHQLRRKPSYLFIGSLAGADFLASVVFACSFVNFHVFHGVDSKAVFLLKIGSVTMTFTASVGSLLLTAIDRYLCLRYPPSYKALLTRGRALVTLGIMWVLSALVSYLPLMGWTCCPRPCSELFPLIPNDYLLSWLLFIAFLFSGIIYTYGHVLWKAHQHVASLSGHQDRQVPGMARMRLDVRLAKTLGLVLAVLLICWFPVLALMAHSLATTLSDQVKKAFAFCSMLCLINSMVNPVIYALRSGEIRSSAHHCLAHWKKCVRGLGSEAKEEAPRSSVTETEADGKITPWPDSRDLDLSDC
Chain of human CB1 receptors (P21554 whole entry): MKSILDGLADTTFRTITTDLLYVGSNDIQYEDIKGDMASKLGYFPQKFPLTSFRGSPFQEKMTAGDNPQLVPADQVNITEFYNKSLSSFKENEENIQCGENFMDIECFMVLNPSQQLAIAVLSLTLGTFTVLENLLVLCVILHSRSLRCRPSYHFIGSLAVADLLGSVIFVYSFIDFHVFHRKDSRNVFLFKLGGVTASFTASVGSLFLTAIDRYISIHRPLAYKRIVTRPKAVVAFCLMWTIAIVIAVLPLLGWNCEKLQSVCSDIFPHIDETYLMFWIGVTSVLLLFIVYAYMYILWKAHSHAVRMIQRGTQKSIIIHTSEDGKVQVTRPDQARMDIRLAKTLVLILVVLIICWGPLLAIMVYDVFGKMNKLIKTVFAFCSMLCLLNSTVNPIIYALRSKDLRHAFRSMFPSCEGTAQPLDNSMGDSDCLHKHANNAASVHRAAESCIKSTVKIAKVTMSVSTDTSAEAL

For `CN(CC1CC1)C(=O)c1ccc(N2CC(F)(F)C2)c(OCC2CC2)n1` [Example 105, 6-Cyclopropylmethoxy-5-(3,3-difluoro-azetidin-1-yl)-pyridine-2-carboxylic acid cyclopropylmethyl-methyl-amide], the values for the EC50 on human CB2 receptors and on human CB1 receptors were 218 nM and more than 10000 nM, respectively.
Turning to `O=C(c1ccc(N2CC(F)(F)C2)c(OCC2CC2)n1)N1CCN(CC2CC2)CC1` [Example 106, [6-Cyclopropylmethoxy-5-(3,3-difluoro-azetidin-1-yl)-pyridin-2-yl]-(4-cyclopropylmethyl-piperazin-1-yl)-methanone], the EC50 at human CB2 receptors is 123 nM; on human CB1 receptors it was more than 10000 nM.
For `CCOC(=O)C1C2CN(C(=O)c3ccc(N4CC(F)(F)C4)c(OCC4CC4)n3)CC21` (stereo not shown) [Example 107, 3-[6-Cyclopropylmethoxy-5-(3,3-difluoro-azetidin-1-yl)-pyridine-2-carbonyl]-3-aza-bicyclo[3.1.0]hexane-6-carboxylic acid ethyl ester], in that order: 757 nM and more than 10000 nM.
For `COC(=O)C1CCCN1C(=O)c1ccc(N2CC(F)(F)C2)c(OCC2CC2)n1` (stereo not shown) [Example 108, 1-[6-Cyclopropylmethoxy-5-(3,3-difluoro-azetidin-1-yl)-pyridine-2-carbonyl]-pyrrolidine-2-carboxylic acid methyl ester], the results for the EC50 on human CB2 receptors and at human CB1 receptors were 156 nM and more than 10000 nM, respectively.
With `O=C(OCc1ccccc1)N1CCN(C(=O)c2ccc(N3CC(F)(F)C3)c(OCC3CC3)n2)CC1` [Example 109, 4-[6-Cyclopropylmethoxy-5-(3,3-difluoro-azetidin-1-yl)-pyridine-2-carbonyl]-piperazine-1-carboxylic acid benzyl ester], the figures for the EC50 at human CB2 receptors and on human CB1 receptors were 360 nM and more than 10000 nM, respectively.
On to `O=C(O)C1C2CN(C(=O)c3ccc(N4CC(F)(F)C4)c(OCC4CC4)n3)CC21` (stereo not shown) [Example 110, 3-[6-Cyclopropylmethoxy-5-(3,3-difluoro-azetidin-1-yl)-pyridine-2-carbonyl]-3-aza-bicyclo[3.1.0]hexane-6-carboxylic acid], for which the EC50 on human CB2 receptors was 386 nM; at human CB1 receptors, more than 10000 nM.
For `CC(C)(C)OC(=O)N1CCC2(CCCN2C(=O)c2ccc(C3CC3)c(Cc3ccc(F)cc3)n2)CC1` [Example 111, 1-[5-Cyclopropyl-6-(4-fluoro-benzyl)-pyridine-2-carbonyl]-1,8-diaza-spiro[4.5]decane-8-carboxylic acid tert-butyl ester], in that order: 8 nM and 2780 nM.
As to `NC(=O)[C@@H]1CSCN1C(=O)c1ccc(N2CC(F)(F)C2)c(OCC2CC2)n1` [Example 112, (−)-3-[6-Cyclopropylmethoxy-5-(3,3-difluoro-azetidin-1-yl)-pyridine-2-carbonyl]-thiazolidine-4-carboxylic acid amide], the EC50 at human CB2 receptors was 19.8 nM; on human CB1 receptors, more than 10000 nM.
As to `O=C(c1ccc(C2CC2)c(Cc2ccc(F)cc2)n1)N1CCCC12CCNCC2` [Example 113, [5-Cyclopropyl-6-(4-fluoro-benzyl)-pyridin-2-yl]-(1,8-diaza-spiro[4.5]dec-1-yl)-methanone], the figures for the EC50 on human CB2 receptors and at human CB1 receptors were 212 nM and more than 10000 nM, respectively.
On to `NC(=O)C1CCCN1C(=O)c1ccc(N2CC(F)(F)C2)c(OCC2CC2)n1` (stereo not shown) [Example 114, 1-[6-Cyclopropylmethoxy-5-(3,3-difluoro-azetidin-1-yl)-pyridine-2-carbonyl]-pyrrolidine-2-carboxylic acid amide], for which the EC50 is 473 nM on human CB2 receptors and more than 10000 nM on human CB1 receptors.
Regarding `NC(=O)[C@@H]1CS(=O)(=O)CN1C(=O)c1ccc(C2CC2)c(OCC2CC2)n1` [Example 115, (−)-3-(5-Cyclopropyl-6-cyclopropylmethoxy-pyridine-2-carbonyl)-1,1-dioxo-1λ^6-thiazolidine-4-carboxylic acid amide], the EC50 was 7.2 nM at human CB2 receptors and more than 10000 nM at human CB1 receptors.
For `NC(=O)[C@H]1CS(=O)(=O)CN1C(=O)c1ccc(C2CC2)c(OCC2CC2)n1` [Example 117, (+)-3-(5-Cyclopropyl-6-cyclopropylmethoxy-pyridine-2-carbonyl)-1,1-dioxo-1λ^6-thiazolidine-4-carboxylic acid amide], in that order: 485 nM and more than 10000 nM.
As to `O=C(c1ccc(N2CC(F)(F)C2)c(OCC2CC2)n1)N1CC(F)(F)C(F)(F)C1` [Example 118, [6-Cyclopropylmethoxy-5-(3,3-difluoro-azetidin-1-yl)-pyridin-2-yl]-(3,3,4,4-tetrafluoro-pyrrolidin-1-yl)-methanone], the EC50 was 13.2 nM at human CB2 receptors and more than 10000 nM at human CB1 receptors.
On to `CC1CN(C(=O)c2ccc(N3CC(F)(F)C3)c(OCC3CC3)n2)CC(C)O1` (stereo not shown) [Example 119, [6-Cyclopropylmethoxy-5-(3,3-difluoro-azetidin-1-yl)-pyridin-2-yl]-(2,6-dimethyl-morpholin-4-yl)-methanone], for which the EC50 is 599 nM on human CB2 receptors and more than 10000 nM at human CB1 receptors.
`CC1(C)SCN(C(=O)c2ccc(N3CC(F)(F)C3)c(OCC3CC3)n2)[C@@H]1C(N)=O` [Example 120, (R)-3-[6-Cyclopropylmethoxy-5-(3,3-difluoro-azetidin-1-yl)-pyridine-2-carbonyl]-5,5-dimethyl-thiazolidine-4-carboxylic acid amide]: the figures for the 50% effective concentration (EC50) on human CB2 receptors and on human CB1 receptors were 42 nM and more than 10000 nM, respectively.
In the case of `CC1(C)CC[C@@H](C(N)=O)N1C(=O)c1ccc(N2CC(F)(F)C2)c(OCC2CC2)n1` [Example 121, (S)-1-[6-Cyclopropylmethoxy-5-(3,3-difluoro-azetidin-1-yl)-pyridine-2-carbonyl]-5,5-dimethyl-pyrrolidine-2-carboxylic acid amide], the EC50 at human CB2 receptors is 112 nM; at human CB1 receptors, more than 10000 nM.
For `NC(=O)C1CSCN1C(=O)c1ccc(N2CC(F)(F)C2)c(OCC2CC2)n1` (stereo not shown) [Example 122, 3-[6-Cyclopropylmethoxy-5-(3,3-difluoro-azetidin-1-yl)-pyridine-2-carbonyl]-thiazolidine-4-carboxylic acid amide], in that order: 50 nM and more than 10000 nM.
`NC(=O)[C@@H]1C[C@@H](F)CN1C(=O)c1ccc(C2CC2)c(OCC2CC2)n1` [Example 123, (2S,4R)-1-[5-Cyclopropyl-6-(cyclopropylmethoxy)pyridine-2-carbonyl]-4-fluoropyrrolidine-2-carboxamide]: the EC50 at human CB2 receptors was 58.4 nM; on human CB1 receptors, more than 10000 nM.
With `NC(=O)C1C[S+]([O-])CN1C(=O)c1ccc(N2CC(F)(F)C2)c(OCC2CC2)n1` (stereo not shown) [Example 124, 3-[6-(Cyclopropylmethoxy)-5-(3,3-difluoroazetidin-1-yl)pyridine-2-carbonyl]-1-oxo-1,3-thiazolidine-4-carboxamide], the results for the EC50 at human CB2 receptors and at human CB1 receptors were 52.6 nM and more than 10000 nM, respectively.
In the same order, the values of `NC(=O)C1CS(=O)(=O)CN1C(=O)c1ccc(N2CC(F)(F)C2)c(OCC2CC2)n1` (stereo not shown) [Example 125, 3-[6-(Cyclopropylmethoxy)-5-(3,3-difluoroazetidin-1-yl)pyridine-2-carbonyl]-1,1-dioxo-1,3-thiazolidine-4-carboxamide] are 9.5 nM and more than 10000 nM.

Values taken from patent publication US9303012B2, “Pyridine-2-amides useful as CB2 agonists” (Hoffmann-La Roche Inc., priority 2012, dated 2016).
